In ChEMBL document CHEMBL1201861, “Genomics of Drug Sensitity in Cancer screening data, Wellcome Trust Sanger Institute”:

Experiments:
[1] = test system: DMS-153; assay: cells; assay type: functional, cell-based, Homo sapiens; settings: Homo sapiens, DMS-153
Description: SANGER: Inhibition of human DMS-153 cell growth in a cell viability assay.

[2] = test system: DMS-79; assay: cells; assay type: functional, cell-based, Homo sapiens; settings: Homo sapiens, DMS-79
Description: SANGER: Inhibition of human DMS-79 cell growth in a cell viability assay.

[3] = test system: Daudi; assay: cells; assay type: functional, cell-based, Homo sapiens; settings: Homo sapiens, Daudi;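 note: growth inhibition of Daudi cells, read out by a viability assay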
Description: SANGER: Inhibition of human Daudi cell growth in a cell viability assay.

[4] = test system: EC-GI-10; assay: cells; assay type: functional, cell-based, Homo sapiens; settings: Homo sapiens, EC-GI-10
Description: SANGER: Inhibition of human EC-GI-10 cell growth in a cell viability assay.

[5] = test system: IM-9; assay: SANGER: Inhibition of human IM-9 cell growth in a cell viability assay.; assay type: functional, cell-based; settings: Homo sapiens, IM-9
[6] = test system: L-540; assay: cells; assay type: functional, cell-based, Homo sapiens; settings: Homo sapiens, L-540;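 note: growth inhibition of the human L-540 cell line, read out with a viability assay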
Description: SANGER: Inhibition of human L-540 cell growth in a cell viability assay.

[7] = test system: LP-1; assay: cells; assay type: functional, cell-based, Homo sapiens; settings: Homo sapiens, LP-1;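 note: growth inhibition of human LP-1 cells, with the read-out taken from a cell viability assay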
Description: SANGER: Inhibition of human LP-1 cell growth in a cell viability assay.

[8] = test system: NCI-H1436; assay: cells; assay type: functional, cell-based, Homo sapiens; settings: Homo sapiens, NCI-H1436;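 note: growth suppression of human NCI-H1436 cells, determined with a cell viability readout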
Description: SANGER: Inhibition of human NCI-H1436 cell growth in a cell viability assay.

[9] = test system: NCI-H187; assay: cells; assay type: functional, cell-based, Homo sapiens; settings: Homo sapiens, NCI-H187;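 note: growth inhibition of NCI-H187 cells, read out as cell viability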
Description: SANGER: Inhibition of human NCI-H187 cell growth in a cell viability assay.

[10] = test system: NCI-H345; assay: cells; assay type: functional, cell-based, Homo sapiens; settings: Homo sapiens, NCI-H345;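 note: growth inhibition of NCI-H345 cells measured with a cell viability assay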
Description: SANGER: Inhibition of human NCI-H345 cell growth in a cell viability assay.

[11] = test system: SNU-16; assay: cells; assay type: functional, cell-based, Homo sapiens; settings: Homo sapiens, SNU-16;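 note: growth inhibition of human SNU-16 cells, determined with a cell viability readout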
Description: SANGER: Inhibition of human NCI-SNU-16 cell growth in a cell viability assay.

[12] = test system: OPM-2; assay: cells; assay type: functional, cell-based, Homo sapiens; settings: Homo sapiens, OPM-2;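 note: growth of OPM-2 cells measured with a viability assay, IC50 for suppression of proliferation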
Description: SANGER: Inhibition of human OPM-2 cell growth in a cell viability assay.

[13] = test system: REH; assay: cells; assay type: functional, cell-based, Homo sapiens; settings: Homo sapiens, REH;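 note: growth inhibition of REH cells determined with a cell viability read-out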
Description: SANGER: Inhibition of human REH cell growth in a cell viability assay.

[14] = test system: RPMI 8402; assay: SANGER: Inhibition of human RPMI-8402 cell growth in a cell viability assay.; assay type: functional, cell-based; settings: Homo sapiens, RPMI 8402
[15] = test system: SK-MM-2; assay: cells; assay type: functional, cell-based, Homo sapiens; settings: Homo sapiens, SK-MM-2;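 note: growth inhibition of human SK-MM-2 cells, read out with a cell viability assay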
Description: SANGER: Inhibition of human SK-MM-2 cell growth in a cell viability assay.

[16] = test system: SNU-C1; assay: cells; assay type: functional, cell-based, Homo sapiens; settings: Homo sapiens, SNU-C1;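 note: growth inhibition of SNU-C1 human cells, read out by a cell viability assay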
Description: SANGER: Inhibition of human SNU-C1 cell growth in a cell viability assay.

[17] = test system: SUP-T1; assay: cells; assay type: functional, cell-based, Homo sapiens; settings: Homo sapiens, SUP-T1;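 note: growth inhibition of human SUP-T1 cells, read out as cell viability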
Description: SANGER: Inhibition of human SUP-T1 cell growth in a cell viability assay.

[18] = test system: TALL-1; assay: cells; assay type: functional, cell-based, Homo sapiens; settings: Homo sapiens, TALL-1;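 note: growth inhibition of cultured human TALL-1 cells, read out by a cell viability assay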
Description: SANGER: Inhibition of human TALL-1 cell growth in a cell viability assay.

[19] = test system: BC-3; assay: cells; assay type: functional, cell-based, Homo sapiens; settings: Homo sapiens, BC-3;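 note: cell viability assay measuring growth inhibition of human BC-3 cells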
Description: SANGER: Inhibition of human BC-3 cell growth in a cell viability assay.

[20] = test system: TUR; assay: cells; assay type: functional, cell-based, Homo sapiens; settings: Homo sapiens, TUR;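 note: growth inhibition of human TUR cells, read out with a cell viability assay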
Description: SANGER: Inhibition of human TUR cell growth in a cell viability assay.

[21] = test system: CP50-MEL-B; assay: cells; assay type: functional, cell-based; settings: Homo sapiens;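 note: growth inhibition of the human cell line, measured with a cell viability read-out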
Description: SANGER: Inhibition of human CP50-MEL-B cell growth in a cell viability assay.

[22] = test system: EFO-27; assay: cells; assay type: functional, cell-based; settings: Homo sapiens;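 note: growth inhibition of EFO-27 cells, read out with a cell viability assay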
Description: SANGER: Inhibition of human EFO-27 cell growth in a cell viability assay.

[23] = test system: FTC-133; assay: cells; assay type: functional, cell-based; settings: Homo sapiens
[24] = test system: G-401; assay: cells; assay type: functional, cell-based; settings: Homo sapiens
Description: SANGER: Inhibition of human G-401 cell growth in a cell viability assay.

[25] = test system: HCC1806; assay: cells; assay type: functional, cell-based; settings: Homo sapiens;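 note: growth inhibition of the cancer cell line, determined with a cell viability assay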
Description: SANGER: Inhibition of human HCC1806 cell growth in a cell viability assay.

[26] = test system: HCC 2998; assay: cells; assay type: functional, cell-based; settings: Homo sapiens;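 note: growth inhibition of human HCC2998 cells, measured with a cell viability read-out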
Description: SANGER: Inhibition of human HCC2998 cell growth in a cell viability assay.

[27] = test system: HCC70; assay: cells; assay type: functional, cell-based; settings: Homo sapiens;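 note: cell viability assay measuring how strongly the compound suppresses proliferation of HCC70 cells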
Description: SANGER: Inhibition of human HCC70 cell growth in a cell viability assay.

[28] = test system: HT-1080; assay: cells; assay type: functional, cell-based; settings: Homo sapiens
Description: SANGER: Inhibition of human HT-1080 cell growth in a cell viability assay.

[29] = test system: HT-3; assay: cells; assay type: functional, cell-based; settings: Homo sapiens;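 note: growth inhibition measured with a cell viability readout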
Description: SANGER: Inhibition of human HT-3 cell growth in a cell viability assay.

[30] = test system: HT55; assay: cells; assay type: functional, cell-based; settings: Homo sapiens;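 note: cell viability readout measuring growth inhibition of human HT55 cells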
Description: SANGER: Inhibition of human HT55 cell growth in a cell viability assay.

[31] = test system: KP-N-YN; assay: cells; assay type: functional, cell-based; settings: Homo sapiens;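 note: growth inhibition of KP-N-YN cells, read out with a cell viability assay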
Description: SANGER: Inhibition of human KP-N-YN cell growth in a cell viability assay.

[32] = test system: KYSE-70 cell line; assay: cells; assay type: functional, cell-based; settings: Homo sapiens;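 note: cell viability assay read-out, with IC50 expressing suppression of KYSE-70 cell growth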
Description: SANGER: Inhibition of human KYSE-70 cell growth in a cell viability assay.

[33] = test system: M059J; assay: cells; assay type: functional, cell-based; settings: Homo sapiens;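 note: growth inhibition of M059J cells, read out with a cell viability assay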
Description: SANGER: Inhibition of human M059J cell growth in a cell viability assay.

[34] = test system: MDA-MB-415; assay: cells; assay type: functional, cell-based; settings: Homo sapiens
[35] = test system: MG-63; assay: cells; assay type: functional, cell-based; settings: Homo sapiens;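 note: growth inhibition of human MG-63 cells, read out with a cell viability assay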
Description: SANGER: Inhibition of human MG-63 cell growth in a cell viability assay.

[36] = test system: NCI-H1623; assay: cells; assay type: functional, cell-based; settings: Homo sapiens;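 note: cell viability assay used as the read-out for growth inhibition of NCI-H1623 cells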
Description: SANGER: Inhibition of human NCI-H1623 cell growth in a cell viability assay.

[37] = test system: NCI-H2052; assay: cells; assay type: functional, cell-based; settings: Homo sapiens;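 note: growth inhibition of NCI-H2052 cells, read out with a cell viability assay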
Description: SANGER: Inhibition of human NCI-H2052 cell growth in a cell viability assay.

[38] = test system: NCI-H2452; assay: cells; assay type: functional, cell-based; settings: Homo sapiens;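 note: growth inhibition of NCI-H2452 cells, read out with a cell viability assay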
Description: SANGER: Inhibition of human NCI-H2452 cell growth in a cell viability assay.

[39] = test system: NY; assay: cells; assay type: functional, cell-based; settings: Homo sapiens
Description: SANGER: Inhibition of human NY cell growth in a cell viability assay.

[40] = test system: PC-3; assay: cells; assay type: functional, cell-based; settings: Homo sapiens;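 note: cell viability assay measuring growth inhibition of PC-3 cells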
Description: SANGER: Inhibition of human PC-3 cell growth in a cell viability assay.

[41] = test system: RMG-I; assay: cells; assay type: functional, cell-based; settings: Homo sapiens;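 note: growth inhibition of human RMG-I cells, read out with a cell viability assay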
Description: SANGER: Inhibition of human RMG-I cell growth in a cell viability assay.

[42] = test system: RPMI-7951; assay: cells; assay type: functional, cell-based; settings: Homo sapiens
Description: SANGER: Inhibition of human RPMI-7951 cell growth in a cell viability assay.

[43] = test system: SBC-5; assay: cells; assay type: functional, cell-based; settings: Homo sapiens;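 note: cell viability assay read-out, IC50 is the concentration that inhibits growth of the cells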
Description: SANGER: Inhibition of human SBC-5 cell growth in a cell viability assay.

[44] = test system: SW1417; assay: cells; assay type: functional, cell-based; settings: Homo sapiens;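 note: growth inhibition of human SW1417 cells, read out with a cell viability assay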
Description: SANGER: Inhibition of human SW1417 cell growth in a cell viability assay.

[45] = test system: SW48; assay: cells; assay type: functional, cell-based; settings: Homo sapiens;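 note: growth inhibition of SW48 cells, read out with a cell viability assay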
Description: SANGER: Inhibition of human SW48 cell growth in a cell viability assay.

[46] = test system: SiHa; assay: cells; assay type: functional, cell-based; settings: Homo sapiens;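 note: Viability-based readout of growth inhibition in SiHa cells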
Description: SANGER: Inhibition of human SiHa cell growth in a cell viability assay.

[47] = test system: T-24; assay: cells; assay type: functional, cell-based; settings: Homo sapiens;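 note: growth inhibition of T-24 cells, read out with a cell viability assay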
Description: SANGER: Inhibition of human T-24 cell growth in a cell viability assay.

[48] = test system: A-431; assay: cells; assay type: functional, cell-based; settings: Homo sapiens;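 note: growth inhibition of A-431 cells, determined with a cell viability read-out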
Description: SANGER: Inhibition of human A431 cell growth in a cell viability assay.

[49] = test system: AGS; assay: cells; assay type: functional, cell-based; settings: Homo sapiens;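 note: growth inhibition of AGS cells, determined with a cell viability assay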
Description: SANGER: Inhibition of human AGS cell growth in a cell viability assay.

[50] = test system: ASPC1; assay: cells; assay type: functional, cell-based; settings: Homo sapiens;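 note: growth inhibition of AsPC-1 cells, read out with a cell viability assay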
Description: SANGER: Inhibition of human AsPC-1 cell growth in a cell viability assay.

[51] = test system: CAL-12T; assay: cells; assay type: functional, cell-based; settings: Homo sapiens;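 note: growth inhibition of human CAL-12T cells, read out with a cell viability assay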
Description: SANGER: Inhibition of human CAL-12T cell growth in a cell viability assay.

[52] = test system: CAL-62; assay: cells; assay type: functional, cell-based; settings: Homo sapiens;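 note: growth inhibition of CAL-62 cells, read out with a cell viability assay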
Description: SANGER: Inhibition of human CAL-62 cell growth in a cell viability assay.

[53] = test system: TYK-nu; assay: cells; assay type: functional, cell-based; settings: Homo sapiens;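 note: growth inhibition of human TYK-nu cells, read out by a cell viability assay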
Description: SANGER: Inhibition of human TYK-nu cell growth in a cell viability assay.

[54] = test system: U-251; assay: cells; assay type: functional, cell-based; settings: Homo sapiens;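 note: growth inhibition of human U-251 cells, read out through a cell viability assay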
Description: SANGER: Inhibition of human U251 cell growth in a cell viability assay.

[55] = test system: SIG-M5; assay: cells; assay type: functional, cell-based, Homo sapiens; settings: Homo sapiens, SIG-M5;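 note: cell viability assay read-out, measuring how strongly growth of cultured human SIG-M5 cells is inhibited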
Description: SANGER: Inhibition of human SIG-M5 cell growth in a cell viability assay.

Cc1ccc(NC(=O)c2ccc(CN3CCN(C)CC3)cc2)cc1Nc1nccc(-c2cccnc2)n1 [IMATINIB]
IC50 [1]: > 2000 nM | IC50 [2]: > 2000 nM | IC50 [3]: > 2000 nM | IC50 [4]: > 2000 nM | IC50 [5]: > 2000 nM | IC50 [6]: > 2000 nM | IC50 [7]: > 2000 nM | IC50 [8]: 978 nM | IC50 [9]: > 2000 nM | IC50 [10]: > 2000 nM | IC50 [11]: > 2000 nM | IC50 [12]: > 2000 nM | IC50 [13]: > 2000 nM | IC50 [14]: > 2000 nM | IC50 [15]: > 2000 nM | IC50 [16]: > 2000 nM | IC50 [17]: > 2000 nM | IC50 [18]: > 2000 nM | IC50 [19]: > 2000 nM | IC50 [20]: > 2000 nM

NC1(c2ccc(-c3nc4ccn5c(=O)[nH]nc5c4cc3-c3ccccc3)cc2)CCC1 [MK-2206]
IC50 [21]: > 4000 nM | IC50 [22]: > 4000 nM | IC50 [23]: > 4000 nM | IC50 [24]: 1300 nM | IC50 [25]: > 4000 nM | IC50 [26]: > 4000 nM | IC50 [27]: 598 nM | IC50 [28]: > 4000 nM | IC50 [29]: > 4000 nM | IC50 [30]: > 4000 nM | IC50 [31]: > 4000 nM | IC50 [32]: > 4000 nM | IC50 [33]: > 4000 nM | IC50 [34]: 636 nM | IC50 [35]: > 4000 nM | IC50 [36]: 3410 nM | IC50 [37]: > 4000 nM | IC50 [38]: > 4000 nM | IC50 [39]: > 4000 nM | IC50 [40]: > 4000 nM | IC50 [41]: 2160 nM | IC50 [42]: > 4000 nM | IC50 [43]: > 4000 nM | IC50 [44]: > 4000 nM | IC50 [45]: > 4000 nM | IC50 [46]: > 4000 nM | IC50 [47]: 2480 nM | IC50 [48]: > 4000 nM | IC50 [49]: 2720 nM | IC50 [50]: 221 nM | IC50 [51]: > 4000 nM | IC50 [52]: > 4000 nM | IC50 [53]: > 4000 nM | IC50 [54]: > 4000 nM

COc1cc(N2CCC(N3CCN(C)CC3)CC2)ccc1Nc1ncc(Cl)c(Nc2ccccc2S(=O)(=O)C(C)C)n1 [TAE-684]
IC50 [1]: > 2000 nM | IC50 [2]: > 2000 nM | IC50 [3]: 1790 nM | IC50 [4]: > 2000 nM | IC50 [5]: > 2000 nM | IC50 [6]: 370 nM | IC50 [7]: 1870 nM | IC50 [8]: > 2000 nM | IC50 [9]: 1700 nM | IC50 [10]: > 2000 nM | IC50 [11]: 727 nM | IC50 [12]: 227 nM | IC50 [13]: > 2000 nM | IC50 [14]: > 2000 nM | IC50 [55]: 292 nM | IC50 [15]: 416 nM | IC50 [16]: > 2000 nM | IC50 [17]: > 2000 nM | IC50 [18]: > 2000 nM | IC50 [19]: > 2000 nM | IC50 [20]: > 2000 nM
